Entries after “also recorded” stand apart in the source; their conditions may differ.
Columns and labels:
Format in all cases: cell-based, human
HES3-MIXL1-GFP hESCs [1] = assay: Primitive streak differentiation screening in array of BIO, BMP-4 and Activin A (MIXL1-GFP reporter)
Experimental: Cells were allowed to attach to the well array 330 for 8-10 h in an incubator (37° C., 5% CO2 in air), then subjected to continuous fluid flow under the specified factor conditions at 60 μL/h total flowrate.
Serial exchange of staining and washing solutions was driven by a syringe pump.
Spot intensities in each channel were linearly transformed about the mean and standard deviation for all spots in that channel in an individual array, by IEOS-GFP=(TEOS-GFP−μEOS-GFP)/σEOS-GFP, where IEOS-GFP is the expression index of EOS-GFP, and μEOS-GFP is the mean and σEOS-GFP the standard deviation of all TEOS-GFP for a particular array. This provides expression indices (IEOS-GFP, IMIXL1-GFP) rating each spot's intensity in terms of global standard deviations relative to the global mean.
Factorial analyses are performed on expression index data with MINITAB 15 software (Minitab Inc.). Expression indices were designated as response variables and soluble factors designated as inputs. A fourth input variable, ‘Position’, was defined based on each culture well's row coordinate in the array. Effect magnitudes were then generated by MINITAB according to methods described elsewhere^45. Pearson product-moment correlation coefficients (rX,Y), coefficients of determination for linear regression (R^2), and Student's t-test statistics were calculated with Microsoft Excel. For Student's t-tests, two-tailed tests were performed for two samples assuming unequal variances, and differences with p<0.05 were considered significant.
HES3-MIXL1-GFP hESCs (also, HES3 MIXL1^GFP/w hESCs; karyotying and in vivo teratomas) growing as a monolayer were differentiated under continual flow in the apparatus 300 for 2.5 d in a full-factorial array of BMP-4, Activin A, and the GSK-3β inhibitor/canonical Wnt activator 6-bromoindirubin-3′-oxime (BIO) in RPMI B27 medium. A screening panel showing array conditions is shown in FIG. 6A, with numbers indicating concentrations of BIO (μM), BMP-4 (ng/mL) and Activin A (ng/mL).

HES3-MIXL1-GFP hESCs [2] = assay: Static primitive streak induction cultures with chemical modulation of Wnt signals
Experimental: HES3-MIXL1-GFP hESCs maintained in mTeSR-1/Matrigel cultures were detached with TrypLE Express, seeded at 7.5×10^4 cells/cm^2 into 24-well plates coated with a limiting dilution of hESC-qualified Matrigel and allowed to attach overnight, after which cultures were typically ˜60% confluent. MIXL1-GFP expression was then induced by differentiating in RPMI B27 medium with 10 ng/ml BMP-4 and 6 ng/ml Activin A (both R&D Systems) for 2.5 d with optional addition of 5 μM IWP-4 and 5 μM CHIR99021 (both Stemgent), or 0.1% v/v DMSO vehicle control.
Although such paracrine factor dependencies and negative feedback signals regulating mesendoderm specification are clearly necessary developmental drivers in a transient in vivo structure such as primitive streak, they inevitably reduce efficiency of in vitro differentiation. It was therefore tested whether the outcomes of modulating positive and negative paracrine regulators in the array could be translated to optimise directed differentiation protocols in conventional static cultures.

HES3-MIXL1-GFP hESCs [3] = assay: Primitive streak array screening of CHIR99021, conditioned medium and IWP-4 (MIXL1-GFP reporter); settings: background RPMI B27 with 10 ng/mL BMP-4 and 6 ng/mL Activin A, continuous flow
Experimental: For use in apparatus 300, conditioned medium was recovered from static controls differentiated in 10 ng/mL BMP-4 and 6 ng/mL Activin A in RPMI B27 medium. Cells were removed by centrifugation and supernatant medium stored at 4° C. Media from days 1 and 2 were mixed and BMP-4 and Activin A re-supplemented at 50% of nominal levels before use in arrays.

[4] = 2.5 d, continual flow, RPMI B27 medium

O=C1Nc2cc(Br)ccc2/C1=C1/Nc2ccccc2/C1=N\O [BIO, 6-bromoindirubin-3′-oxime]
optimum concentration for expression index IMIXL1-GFP (factorial analysis) (HES3-MIXL1-GFP hESCs [1]; 2.5 d, continual flow, RPMI B27 medium, levels 0, 1, 2 μM): 1 µM
number of rows over which bright MIXL1-GFP expression extended (HES3-MIXL1-GFP hESCs [1]; column 15: 1 μM BIO with 10 ng/mL BMP-4, 6 ng/mL Activin A, single peak at row 7 without BIO): 4-5 rows

COc1ccccc1-n1c(SCC(=O)Nc2nc3ccc(C)cc3s2)nc2c(c1=O)SCC2 [IWP-4]
MIXL1 induction (HES3-MIXL1-GFP hESCs [2]; static controls, FIG. 7H, 5 μM IWP-4): completely blocked MIXL1 induction

Cc1c[nH]c(-c2cnc(NCCNc3ccc(C#N)cn3)nc2-c2ccc(Cl)cc2Cl)n1 [CHIR99021]
effect on MIXL1-GFP expression level and position in the array (HES3-MIXL1-GFP hESCs [3]): only shifted expression up marginally; also recorded: produced an extended streak of MIXL1-GFP expression
effect on MIXL1-GFP expression level and position in the array (HES3-MIXL1-GFP hESCs [3]; listed as CHIR): both improved the expression level and broadened the number of rows over which appreciable expression extended
MIXL1-GFP induction, % of cells (HES3-MIXL1-GFP hESCs [2]; 5 μM CHIR99021 added to RPMI B27+10 ng/mL BMP-4+6 ng/mL Activin A, 2.5 d, 51% under standard conditions): 86%

B1: BMP-4: soluble growth factor (R&D Systems) used for primitive streak induction (protein, UniProt P12644 293-408, looked up)
Bone morphogenetic protein 4: SPKHHSQRARKKNKNCRRHSLYVDFSDVGWNDWIVAPPGYQAFYCHGDCPFPLADHLNSTNHAIVQTLVNSVNSSIPKACCVPTELSAISMLYLDEYDKVVLKNYQEMVVEGCGCR
optimum concentration for expression index IMIXL1-GFP (factorial analysis) (HES3-MIXL1-GFP hESCs [1]; [4]): 10 ng/mL

B2: Activin A: soluble growth factor (R&D Systems) used for primitive streak induction (protein, UniProt P08476 311-426, looked up)
Inhibin beta A chain: GLECDGKVNICCKKQFFVSFKDIGWNDWIIAPSGYHANYCEGECPSHIAGTSGSSLSFHSTVINHYRMRGHSPFANLKSCCVPTKLRPMSMLYYDDGQNIIKKDIQNMIVEECGCS
dependence of expression index IMIXL1-GFP on factor (factorial analysis) (HES3-MIXL1-GFP hESCs [1]; [4]): linear, positive dependence

Source: US9931629B2, “Substance exposure apparatus” (The University of Queensland, priority 2011, dated 2018)
